In patent US9597299B2, “Method for treating gefitinib-resistant non-small-cell lung cancer” (Macau University of Science and Technology, priority 2014, dated 2017):

What was measured:
Assay type in all cases: cell-based
EGFR PY1173 [1] = assay: immunoblot analysis of EGFR PY1173, H1975 cell lysate
Method: (§1) Moreover, the inhibition of PY1173 activation happens as early as in 1 hour after TMS treatment.

[2] = tested on: H358 (EGFR wild-type) NSCLC cells; assay: cell viability assay, H358; conditions: Homo sapiens, NCI-H358
Description: (§2) Table 1 summarizes the IC50 values of five different cell lines treated with TMS.

H1975 cells [3] = assay: relative cell viability, TMS with/without compound c, H1975
[4] = tested on: H1975 (EGFR double mutation) gefitinib-resistant NSCLC cells; assay: cell viability assay, H1975
Description: as §2

[5] = tested on: A549 (EGFR wild-type) NSCLC cells; assay: cell viability assay, A549; conditions: Homo sapiens
Description: as §2

H1975 cells [6] = assay: cell morphology and flow cytometry (apoptosis), H1975; conditions: gefitinib-resistant NSCLC cell lines (H1975), FIG. 2
H1975 cells [7] = assay: cell morphology, flow cytometry and relative cell viability, TMS with/without JNK inhibitor, H1975; conditions: TMS alone, groups: control, FIG. 6
[8] = tested on: H820 (EGFR double mutation) gefitinib-resistant NSCLC cells; assay: cell viability assay, H820; conditions: NCI-H820
Description: as §2

[9] = tested on: BEAS-2B (normal epithelial cells); assay: cell viability assay, BEAS-2B; conditions: Homo sapiens
Description: as §2

EGFR PY1173 [10] = assay: immunoblot analysis of EGFR PY1173, A549 cell lysate; conditions: A549 cells
Method: as §1

[11] = tested on: mammalian target of rapamycin (mTOR); assay: proteomic analysis of apoptosis markers; conditions: proteomics, gefitinib-resistant NSCLC cells, FIG. 3
Description: FIG. 3 is a schematic diagram showing the proteomic analysis result of TMS on different markers involved in apoptosis of gefitinib-resistant non-small-cell lung cancer cells.

SMILES	time to inhibition of PY1173 activation after TMS treatment (EGFR PY1173 [1]; H1975, fixed concentration of TMS) [h]	activation of EGFR PY1173 (EGFR PY1173 [1]; TMS at 40, 60 and 80 nM, gefitinib-resistant NSCLC cells (H1975))	IC50 [2] [µM]	apoptosis induction / relative cell viability among four treatment groups (H1975 cells [3]; TMS alone (40 nM), groups: control, compound c, TMS, FIG. 4)	selectivity for gefitinib-resistant NSCLC cells over normal and EGFR wild-type cells ([4]; H1975 and H820 versus BEAS-2B, A549, H358)	IC50 ([4]; Homo sapiens, NCI-H1975, H1975 (EGFR double mutation), cell viability) [µM]	IC50 [5] [µM]	induction of apoptosis (H1975 cells [6])	apoptosis induction / relative cell viability among four treatment groups (H1975 cells [7])	IC50 [8] [µM]	IC50 [9] [µM]	inhibitory effect on EGFR (PY1173) (EGFR PY1173 [10])	suppression of EGFR PY1173 (EGFR PY1173 [10]; 10-time higher concentration of TMS)	effect on mTOR [11]	effect of compound c on the effect of TMS (H1975 cells [3]; H1975, FIG. 4)
COc1ccc(/C=C\c2cc(OC)c(OC)c(OC)c2)cc1 [TMS, (Z)3,4,5,4′-tetramethoxystilbene]	≤ 1	inhibits the activation of EGFR PY1173	> 0.4	most effective in inducing apoptosis	selectivity on gefitinib-resistant NSCLC cells	0.0572 ± 0.0135	> 0.4	inducing apoptosis	most effective in inducing apoptosis	0.136 ± 0.0359	> 0.4	not detected	no suppression of EGFR PY1173 was observed	significantly inhibited	–
c1cc(-c2cnn3cc(-c4ccc(OCCN5CCCCC5)cc4)cnc23)ccn1 [compound c, reference compound]	–	–	–	–	–	–	–	–	–	–	–	–	–	–	counteracts the effect of TMS
